Laboratory results published in patent US20080139604A1, “Method of Treating Atherosclerosis, Dyslipidemias and Related Conditions” (priority 2005, published 2008).

Test system: DP-independent nicotinic acid induced vasodilation
Experiment: nicotinic acid induced vasodilation in mice genetically devoid of the DP receptor
Assay type: in vivo, mouse
Details: mice genetically devoid of the DP receptor (DP1), administration or pre-administration
Description: Thus, some portion of nicotinic acid induced vasodilation may not be dependent on the DP receptor. This DP-independent vasodilation can be inhibited by the administration or pre-administration of aspirin, a COX-1/COX-II inhibitor, to the mice. Human doses range from about 20-25 mg to as high as about 650 mg, administered about one hour to about 30 minutes before the administration of nicotinic acid, up to simultaneous administration, and repeated as necessary up to about every four hours. Thus a combination of DP receptor antagonist and aspirin is particularly effective to suppress nicotinic acid induced flushing in humans, attenuating some or all of the flushing that is not suppressed by the […] or by aspirin alone.

SMILES: CC(=O)Oc1ccccc1C(=O)O [aspirin]
- inhibition of DP-independent nicotinic acid induced vasodilation: inhibited
